US5502035A, “N-terminus modified analogs of LHRH” (Tap Holdings Inc., priority 1994, dated 1996)
Non-standard residues stand in square brackets, D forms with d. Residues, ends and D or L forms follow the SMILES beside them. *: point of attachment. Shikimoyl = O=C(C1=C[C@@H](O)[C@@H](O)[C@H](O)C1)*; Tetrahydrofuroyl(2R) = O=C([C@H]1CCCO1)*; dPhe(4-Cl) = N[C@H](Cc1ccc(Cl)cc1)C(=O)O; d2Nal = N[C@H](Cc1ccc2ccccc2c1)C(=O)O; Lys(iPr) = CC(C)NCCCC[C@H](N)C(=O)O; NMeY = CN[C@@H](Cc1ccc(O)cc1)C(=O)O; X10 = Cc1ccc(S(=O)(=O)NNC(=O)*)cc1; dCit = NC(=O)NCCC[C@@H](N)C(=O)O; d3Pal = N[C@H](Cc1cccnc1)C(=O)O; Isonicotinoyl = O=C(c1ccncc1)*; Salicyloyl = O=C(c1ccccc1O)*; Nicotinoyl = O=C(c1cccnc1)*; Tos = Cc1ccc(S(=O)(=O)*)cc1; 2Furoyl = O=C(c1ccco1)*; X1 = O=C([C@@H]1CCCO1)*; X3 = O=C([C@@H]1CCOC1)*; X7 = O=C([C@H]1CCOC1)*; X6 = O=C(c1ccoc1)*; azaGly = NNC(=O)O

Molecular target: T1, LHRH (Rattus norvegicus, UniProt P30969)
T1 construct: endogenous in cells; host or cells: rat pituitary cells (own knowledge of the cited Haviv 1989 method)
T1 sequence (P30969 1-327): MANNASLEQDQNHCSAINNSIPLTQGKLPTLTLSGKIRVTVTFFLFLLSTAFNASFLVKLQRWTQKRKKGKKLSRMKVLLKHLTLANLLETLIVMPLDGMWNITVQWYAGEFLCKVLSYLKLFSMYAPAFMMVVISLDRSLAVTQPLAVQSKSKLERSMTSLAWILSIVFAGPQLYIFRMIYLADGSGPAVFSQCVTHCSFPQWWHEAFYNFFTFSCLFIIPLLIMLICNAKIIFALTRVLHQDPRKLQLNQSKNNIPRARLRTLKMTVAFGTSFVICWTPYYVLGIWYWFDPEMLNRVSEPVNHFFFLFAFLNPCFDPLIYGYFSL
Assay: in vitro test for LHRH antagonist potency (pA2)
Type: cell-based
Details: negative logarithm of the antagonist concentration required to shift the response curve produced by the agonist leuprolide to two-fold higher concentration
Method in brief: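 Antagonism read against the agonist leuprolide on rat LHRH receptor; value is pA2, the −log of antagonist concentration that doubles the agonist concentration needed for the same response.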

CC(C)C[C@H](NC(=O)[C@@H](CCCCNC(=O)c1cccnc1)NC(=O)[C@H](Cc1ccc(O)cc1)N(C)C(=O)[C@H](CO)NC(=O)[C@@H](Cc1cccnc1)NC(=O)[C@@H](Cc1ccc(Cl)cc1)NC(=O)[C@@H](Cc1ccc2ccccc2c1)NC(=O)NNC(=O)c1ccco1)C(=O)N[C@@H](CCCCNC(C)C)C(=O)N1CCC[C@H]1C(=O)N[C@H](C)C(N)=O [Example 37a, N-(2-Furoyl)-Azagly-D2Nal-D4ClPhe-D3Pal-Ser-NMeTyr-DLys(Nic)-Leu-Lys(Isp)- Pro-DAlaNH2] (2Furoyl-[azaGly][d2Nal][dPhe(4-Cl)][d3Pal]S[NMeY][dK](Nicotinoyl)L[Lys(iPr)]P[dA]-NH2)
Kb: 0.00631 nM

CC(C)C[C@H](NC(=O)[C@@H](CCCCNC(=O)c1cccnc1)NC(=O)[C@H](Cc1ccc(O)cc1)N(C)C(=O)[C@H](CO)NC(=O)[C@@H](Cc1cccnc1)NC(=O)[C@@H](Cc1ccc(Cl)cc1)NC(=O)[C@@H](Cc1ccc2ccccc2c1)NC(=O)NNC(=O)c1cccnc1)C(=O)N[C@@H](CCCCNC(C)C)C(=O)N1CCC[C@H]1C(=O)N[C@H](C)C(N)=O [Example 37b, N-Nicotinyl-Azagly-D2Nal-D4ClPhe-D3Pal-Ser-NMeTyr-DLys(Nic)-Leu-Lys(Isp)-Pro-DAlaNH2] (Nicotinoyl-[azaGly][d2Nal][dPhe(4-Cl)][d3Pal]S[NMeY][dK](Nicotinoyl)L[Lys(iPr)]P[dA]-NH2)
Kb: 0.0158 nM

CC(C)C[C@H](NC(=O)[C@@H](CCCCNC(=O)c1cccnc1)NC(=O)[C@H](Cc1ccc(O)cc1)N(C)C(=O)[C@H](CO)NC(=O)[C@@H](Cc1cccnc1)NC(=O)[C@@H](Cc1ccc(Cl)cc1)NC(=O)[C@@H](Cc1ccc2ccccc2c1)NC(=O)NNC(=O)c1ccccc1O)C(=O)N[C@@H](CCCCNC(C)C)C(=O)N1CCC[C@H]1C(=O)N[C@H](C)C(N)=O [Example 37c, N-Salicyl-Azagly-D2Nal-D4ClPhe-D3Pal-Ser-NMeTyr-DLys(Nic)-Leu-Lys(Isp)-Pro-DAlaNH2] (Salicyloyl-[azaGly][d2Nal][dPhe(4-Cl)][d3Pal]S[NMeY][dK](Nicotinoyl)L[Lys(iPr)]P[dA]-NH2)
Kb: 0.0251 nM

CC(C)C[C@H](NC(=O)[C@@H](CCCCNC(=O)c1cccnc1)NC(=O)[C@H](Cc1ccc(O)cc1)N(C)C(=O)[C@H](CO)NC(=O)[C@@H](Cc1cccnc1)NC(=O)[C@@H](Cc1ccc(Cl)cc1)NC(=O)[C@@H](Cc1ccc2ccccc2c1)NC(=O)NNC(=O)c1ccncc1)C(=O)N[C@@H](CCCCNC(C)C)C(=O)N1CCC[C@H]1C(=O)N[C@H](C)C(N)=O [Example 37d, N-Isonicotinyl-Azagly-D2Nal-D4ClPhe-D3Pal-Ser-NMeTyr-DLys(Nic)-Leu-Lys(Isp)-Pro-DAlaNH2] (Isonicotinoyl-[azaGly][d2Nal][dPhe(4-Cl)][d3Pal]S[NMeY][dK](Nicotinoyl)L[Lys(iPr)]P[dA]-NH2)
Kb: 0.126 nM

Cc1ccc(S(=O)(=O)NNC(=O)N[C@H](Cc2ccc3ccccc3c2)C(=O)N[C@H](Cc2ccc(Cl)cc2)C(=O)N[C@H](Cc2cccnc2)C(=O)N[C@@H](CO)C(=O)N(C)[C@@H](Cc2ccc(O)cc2)C(=O)N[C@H](CCCCNC(=O)c2cccnc2)C(=O)N[C@@H](CC(C)C)C(=O)N[C@@H](CCCCNC(C)C)C(=O)N2CCC[C@H]2C(=O)N[C@H](C)C(N)=O)cc1 [Example 37e, N-Tosyl-Azagly-D2Nal-D4ClPhe-D3Pal-Ser-NMeTyr-DLys(Nic)-Leu-Lys(Isp)-Pro-DAlaNH2] (X10-[d2Nal][dPhe(4-Cl)][d3Pal]S[NMeY][dK](Nicotinoyl)L[Lys(iPr)]P[dA]-NH2)
Kb: 0.0224 nM

CC(C)C[C@H](NC(=O)[C@@H](CCCCNC(=O)c1cccnc1)NC(=O)[C@H](Cc1ccc(O)cc1)N(C)C(=O)[C@H](CO)NC(=O)[C@@H](Cc1cccnc1)NC(=O)[C@@H](Cc1ccc(Cl)cc1)NC(=O)[C@@H](Cc1ccc2ccccc2c1)NC(=O)CNC(=O)[C@@H]1CCCO1)C(=O)N[C@@H](CCCCNC(C)C)C(=O)N1CCC[C@H]1C(=O)N(C)CC(N)=O [Example 39, N-(S)-Tetrahydrofur-2-oyl-Gly-D2Nal-D4ClPhe-D3Pal-Ser-NMeTyr-DLys(Nicotinyl)-Leu-Lys(Isp)-Pro-SarNH2]
Kb: 0.0155 nM

Cc1ccc(S(=O)(=O)N[C@H](Cc2ccc3ccccc3c2)C(=O)N[C@H](Cc2ccc(Cl)cc2)C(=O)N[C@H](Cc2cccnc2)C(=O)N[C@@H](CO)C(=O)N(C)[C@@H](Cc2ccc(O)cc2)C(=O)N[C@H](CCCNC(N)=O)C(=O)N[C@@H](CC(C)C)C(=O)N[C@@H](CCCNC(=N)N)C(=O)N2CCC[C@H]2C(=O)N[C@H](C)C(N)=O)cc1 [Example 66, N-Tosyl-D2Nal-D4ClPhe-D3Pal-Ser-NMeTyr-DCit-Leu-Arg-Pro-DAlaNH2] (Tos-[d2Nal][dPhe(4-Cl)][d3Pal]S[NMeY][dCit]LRP[dA]-NH2)
Kb: 2.63 nM

CC(C)C[C@H](NC(=O)[C@@H](CCCCNC(=O)c1cccnc1)NC(=O)[C@H](Cc1ccc(O)cc1)N(C)C(=O)[C@H](CO)NC(=O)[C@@H](Cc1cccnc1)NC(=O)[C@@H](Cc1ccc(Cl)cc1)NC(=O)[C@@H](Cc1ccc2ccccc2c1)NC(=O)[C@@H]1CCCO1)C(=O)N[C@@H](CCCCNC(C)C)C(=O)N1CCC[C@H]1C(=O)N[C@H](C)C(N)=O [Example 67, N-(S)-Tetrahydrofur-2-oyl-D2Nal-D4ClPhe-D3Pal-Ser-NMeTyr-DLys(Nic)-Leu-Lys(Isp)-Pro-DAlaNH2] (X1-[d2Nal][dPhe(4-Cl)][d3Pal]S[NMeY][dK](Nicotinoyl)L[Lys(iPr)]P[dA]-NH2)
Kb: 0.0251 nM

CC(C)C[C@H](NC(=O)[C@@H](CCCCNC(=O)c1cccnc1)NC(=O)[C@H](Cc1ccc(O)cc1)N(C)C(=O)[C@H](CO)NC(=O)[C@@H](Cc1cccnc1)NC(=O)[C@@H](Cc1ccc(Cl)cc1)NC(=O)[C@@H](Cc1ccc2ccccc2c1)NC(=O)[C@H]1CCCO1)C(=O)N[C@@H](CCCCNC(C)C)C(=O)N1CCC[C@H]1C(=O)N[C@H](C)C(N)=O [Example 68, N-(R)-Tetrahydrofur-2-oyl-D2Nal-D4ClPhe-D3Pal-Ser-NMeTyr-DLys(Nic)-Leu-Lys(Isp)-Pro-DAlaNH2] ({Tetrahydrofuroyl(2R)}-[d2Nal][dPhe(4-Cl)][d3Pal]S[NMeY][dK](Nicotinoyl)L[Lys(iPr)]P[dA]-NH2)
Kb: 0.0141 nM

CC(C)C[C@H](NC(=O)[C@@H](CCCCNC(=O)c1cccnc1)NC(=O)[C@H](Cc1ccc(O)cc1)N(C)C(=O)[C@H](CO)NC(=O)[C@@H](Cc1cccnc1)NC(=O)[C@@H](Cc1ccc(Cl)cc1)NC(=O)[C@@H](Cc1ccc2ccccc2c1)NC(=O)[C@H]1CCOC1)C(=O)N[C@@H](CCCCNC(C)C)C(=O)N1CCC[C@H]1C(=O)N[C@H](C)C(N)=O [Example 69, N-(S)-Tetrahydrofur-3-oyl-D2Nal-D4ClPhe-D3Pal-Ser-NMeTyr-DLys(Nic)t-Leu-Lys(Isp)-Pro-DAlaNH2] (X7-[d2Nal][dPhe(4-Cl)][d3Pal]S[NMeY][dK](Nicotinoyl)L[Lys(iPr)]P[dA]-NH2)
Kb: 0.02 nM

CC(C)C[C@H](NC(=O)[C@@H](CCCCNC(=O)c1cccnc1)NC(=O)[C@H](Cc1ccc(O)cc1)N(C)C(=O)[C@H](CO)NC(=O)[C@@H](Cc1cccnc1)NC(=O)[C@@H](Cc1ccc(Cl)cc1)NC(=O)[C@@H](Cc1ccc2ccccc2c1)NC(=O)[C@@H]1CCOC1)C(=O)N[C@@H](CCCCNC(C)C)C(=O)N1CCC[C@H]1C(=O)N[C@H](C)C(N)=O [Example 70, N-(R)-Tetrahydrofur-3-oyl-D2Nal-D4ClPhe-D3Pal-Ser-NMeTyr-DLys(Nic)-Leu-Lys(Isp)-Pro-DAlaNH2] (X3-[d2Nal][dPhe(4-Cl)][d3Pal]S[NMeY][dK](Nicotinoyl)L[Lys(iPr)]P[dA]-NH2)
Kb: 0.0126 nM

CC(C)C[C@H](NC(=O)[C@@H](CCCCNC(=O)c1cccnc1)NC(=O)[C@H](Cc1ccc(O)cc1)N(C)C(=O)[C@H](CO)NC(=O)[C@@H](Cc1cccnc1)NC(=O)[C@@H](Cc1ccc(Cl)cc1)NC(=O)[C@@H](Cc1ccc2ccccc2c1)NC(=O)C1=C[C@@H](O)[C@@H](O)[C@H](O)C1)C(=O)N[C@@H](CCCCNC(C)C)C(=O)N1CCC[C@H]1C(=O)N[C@H](C)C(N)=O [Example 71, N-Shikimyl-D2Nal-D4ClPhe-D3Pal-Ser-NMeTyr-DLys(Nic)-Leu-Lys(Isp)-Pro-DAlaNH2] (Shikimoyl-[d2Nal][dPhe(4-Cl)][d3Pal]S[NMeY][dK](Nicotinoyl)L[Lys(iPr)]P[dA]-NH2)
Kb: 0.00708 nM

CC(C)C[C@H](NC(=O)[C@@H](CCCCNC(=O)c1cccnc1)NC(=O)[C@H](Cc1ccc(O)cc1)N(C)C(=O)[C@H](CO)NC(=O)[C@@H](Cc1cccnc1)NC(=O)[C@@H](Cc1ccc(Cl)cc1)NC(=O)[C@@H](Cc1ccc2ccccc2c1)NC(=O)c1ccco1)C(=O)N[C@@H](CCCCNC(C)C)C(=O)N1CCC[C@H]1C(=O)N[C@H](C)C(N)=O [Example 72a, N-2-Furoyl-D2Nal-D4ClPhe-D3Pal-Ser-NMeTyr-DLys(Nic)-Leu-Lys(Isp)-Pro-DAlaNH2] (2Furoyl-[d2Nal][dPhe(4-Cl)][d3Pal]S[NMeY][dK](Nicotinoyl)L[Lys(iPr)]P[dA]-NH2)
Kb: 0.01 nM

CC(C)C[C@H](NC(=O)[C@@H](CCCCNC(=O)c1cccnc1)NC(=O)[C@H](Cc1ccc(O)cc1)N(C)C(=O)[C@H](CO)NC(=O)[C@@H](Cc1cccnc1)NC(=O)[C@@H](Cc1ccc(Cl)cc1)NC(=O)[C@@H](Cc1ccc2ccccc2c1)NC(=O)c1ccoc1)C(=O)N[C@@H](CCCCNC(C)C)C(=O)N1CCC[C@H]1C(=O)N[C@H](C)C(N)=O [Example 72b, N-3-Furoyl-D2Nal-D4ClPhe-D3Pal-Ser-NMeTyr-DLys(Nic)-Leu-Lys(Isp)-Pro-DAlaNH2] (X6-[d2Nal][dPhe(4-Cl)][d3Pal]S[NMeY][dK](Nicotinoyl)L[Lys(iPr)]P[dA]-NH2)
Kb: 0.0851 nM
